Source: patent publication US20100160369A1, “S1P1 Agonists and Methods of Making And Using” (EXELIXIS, INC., priority 2008, published 2010)
Read-outs that look alike come from different tables or passages of the source.

Target: S1P1 (Homo sapiens, UniProt P21453)
Experiment: Tango β-arrestin Recruitment Assay in U2OS cells (Assay 2b)
Type: cell-based
Parameters: linker with TEV protease (N1a) cleavage site (C)
Description: For the Tango™ β-arrestin recruitment assay, the cytoplasmic C-terminus of S1P1 is tethered to the tTA transcriptional activator with a linker that contains a cleavage site for the N1a protease from tobacco etch virus (TEV protease). The C-terminus of the human β-arrestin2 protein is fused to TEV protease. Binding of an agonist recruits the β-arrestin-TEV fusion protein to the receptor resulting in cleavage of the linker and release of tTA to enter the nucleus and subsequently activate a tTA-dependent luciferase reporter gene.
Alternatively, U2OS cells expressing the reporter gene and S1P1 (Invitrogen) were added to the wells of a 384-well white opaque bottom assay plate (PerkinElmer) at […] per well. The cells were serum starved for 48 h in Freestyle medium (Invitrogen). Test compounds were tested at maximum concentrations of 1 μM for the agonist assay. Compounds were diluted in DMSO (10 concentration points, 3-fold each) and added to the assay plate at a 1% final DMSO concentration. The efficacy control was 1 μM S1P (Avanti). For each compound, there were duplicate assay plates and each assay plate had duplicate wells per concentration point. The plate was incubated overnight at 37° C. The GeneBLAzer β-lactamase assay reagent (Invitrogen) was added and the plates were incubated for an additional 2 h at room temperature. Fluorescence was measured using an EnVision plate reader (PerkinElmer, Waltham, Mass.) at an excitation wavelength of 409 nm and emission wavelengths of 460 nm and 530 nm. The emission intensity at each wavelength was background subtracted against wells containing medium only and the F460 nm/F530 nm ratio determined for each concentration of the test compounds. Percent activity was calculated as [(test compound ratio−DMSO ratio)/(positive control ratio−DMSO ratio)*100], where the positive control and DMSO ratios are from cells incubated with the efficacy control 1 μM S1P and 1% DMSO, respectively. The percent activities were plotted against compound concentration to determine EC50 using XLFit (IDBS).
Assay 1 is the CNG cAMP Assay as described in Biological Example 1. Assay 2a and 2b are the Tango™ β-arrestin Recruitment Assay in HEK293 and U2OS cells, respectively, as described in Biological Example 2. Assay 3a is the hS1P1R GTPγS Binding Assay as described in Biological Example 3. Assay 3b is the GTP-Eu Binding Assay as described in Biological Example 3. EC50's were measured unless otherwise noted. […] In the table, “nt” means the Compound was not tested and “no” means the compound was tested but had no measurable activity under the assay conditions employed.

[1] = Tango β-arrestin Recruitment Assay, read-out: Assay 2b EC50
[2] = Tango β-arrestin Recruitment Assay, footnote 1: Relative EC50 was measured, read-out: Assay 2b relative EC50

S1P1, sequence (P21453 whole entry): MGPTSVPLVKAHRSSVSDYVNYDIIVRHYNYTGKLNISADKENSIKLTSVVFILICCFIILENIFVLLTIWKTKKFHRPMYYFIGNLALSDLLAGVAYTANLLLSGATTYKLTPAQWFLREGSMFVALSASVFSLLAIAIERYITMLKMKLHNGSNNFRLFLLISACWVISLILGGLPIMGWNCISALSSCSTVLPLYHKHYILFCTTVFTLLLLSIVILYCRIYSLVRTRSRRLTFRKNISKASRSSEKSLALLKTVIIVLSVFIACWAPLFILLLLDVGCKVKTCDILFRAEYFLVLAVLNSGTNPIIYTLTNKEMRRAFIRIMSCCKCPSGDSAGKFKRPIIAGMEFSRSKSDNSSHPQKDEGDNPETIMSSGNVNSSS
S1P1, sequence (P32121 whole entry partner): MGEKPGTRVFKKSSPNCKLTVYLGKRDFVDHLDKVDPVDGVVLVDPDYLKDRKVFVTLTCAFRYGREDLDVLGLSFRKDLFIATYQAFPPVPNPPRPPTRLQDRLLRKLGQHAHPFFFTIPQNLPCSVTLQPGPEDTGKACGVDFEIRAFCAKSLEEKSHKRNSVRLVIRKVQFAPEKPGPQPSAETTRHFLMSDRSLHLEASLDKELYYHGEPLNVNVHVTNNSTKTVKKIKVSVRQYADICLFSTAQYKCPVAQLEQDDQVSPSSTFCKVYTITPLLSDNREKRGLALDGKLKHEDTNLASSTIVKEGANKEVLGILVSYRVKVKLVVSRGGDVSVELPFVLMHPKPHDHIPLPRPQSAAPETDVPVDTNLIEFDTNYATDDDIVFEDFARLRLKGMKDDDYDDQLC

EC50 [1] [nM]	SMILES	other results
≤ 100	OCCNc1cc(Cl)c(-c2noc(-c3cn4cc(C(F)(F)F)cc(Cl)c4n3)n2)cc1F [Example 308, 2-[(5-chloro-4-{5-[8-chloro-6-(trifluoromethyl)imidazo[1,2-a]pyridin-2-yl]-1,2,4-oxadiazol-3-yl}-2-fluorophenyl)amino]ethanol]	
100 to 500	N[C@H](CO)COc1cc(Cl)c(-c2nnc(-c3cn4cc(C(F)(F)F)cc(Cl)c4n3)s2)cc1Cl [Example 420, (2R)-2-amino-3-[(2,5-dichloro-4-{5-[8-chloro-6-(trifluoromethyl)imidazo[1,2-a]pyridin-2-yl]-1,3,4-thiadiazol-2-yl}phenyl)oxy]propan-1-ol]	
≤ 100	C[C@H](COc1cc(Cl)c(-c2noc(-c3cn4cc(C(F)(F)F)cc(Cl)c4n3)n2)cc1Cl)OP(=O)(O)O [Example 328, (1R)-2-[(2,5-dichloro-4-{5-[8-chloro-6-(trifluoromethyl)imidazo[1,2-a]pyridin-2-yl]-1,2,4-oxadiazol-3-yl}phenyl)oxy]-1-methylethyl dihydrogen phosphate]	
≤ 100	COc1ccc2nc(-c3nnc(-c4cc(F)c(OC[C@@H](N)CO)cc4Cl)s3)cn2c1 [Example 310, (2S)-2-amino-3-[(5-chloro-2-fluoro-4-{5-[6-(methyloxy)imidazo[1,2-a]pyridin-2-yl]-1,3,4-thiadiazol-2-yl}phenyl)oxy]propan-1-ol]	
100 to 500	NC(CO)COc1cc(Cl)c(-c2nnc(-c3cn4ccc(C(F)(F)F)cc4n3)s2)cc1F (stereo not shown) [Example 421, 2-amino-3-[(5-chloro-2-fluoro-4-{5-[7-(trifluoromethyl)imidazo[1,2-a]pyridin-2-yl]-1,3,4-thiadiazol-2-yl}phenyl)oxy]propan-1-ol]	
100 to 500	Oc1cc(Cl)c(-c2nnc(-c3cn4cc(C(F)(F)F)cc(Cl)c4n3)s2)cc1F [Example 338, 5-chloro-4-{5-[8-chloro-6-(trifluoromethyl)imidazo[1,2-a]pyridin-2-yl]-1,3,4-thiadiazol-2-yl}-2-fluorophenol]	
≤ 100	NC(CO)COc1cc(Cl)c(-c2nnc(-c3cn4cc(Br)ccc4n3)s2)cc1F (stereo not shown) [Example 339, 2-amino-3-({4-[5-(6-bromoimidazo[1,2-a]pyridin-2-yl)-1,3,4-thiadiazol-2-yl]-5-chloro-2-fluorophenyl}oxy)propan-1-ol]	
≤ 100	NCC(O)COc1cc(Cl)c(-c2nnc(-c3cn4cc(C(F)(F)F)cc(Cl)c4n3)s2)cc1Cl (stereo not shown) [Example 336, 1-amino-3-[(2,5-dichloro-4-{5-[8-chloro-6-(trifluoromethyl)imidazo[1,2-a]pyridin-2-yl]-1,3,4-thiadiazol-2-yl}phenyl)oxy]propan-2-ol]	
≤ 100	COCC(O)COc1cc(Cl)c(-c2noc(-c3cn4cc(C(F)(F)F)cc(Cl)c4n3)n2)cc1Cl (stereo not shown) [Example 318, 1-[(2,5-dichloro-4-{5-[8-chloro-6-(trifluoromethyl)imidazo[1,2-a]pyridin-2-yl]-1,2,4-oxadiazol-3-yl}phenyl)oxy]-3-(methyloxy)propan-2-ol]	

More lines, now with the values behind:

SMILES	EC50 [1] [nM]	other results
CC1(C)OC[C@@H](COc2cc(Cl)c(-c3noc(-c4cn5cc(C(F)(F)F)cc(Cl)c5n4)n3)cc2Cl)O1 [Example 304, 8-chloro-2-{3-[2,5-dichloro-4-({[(4R)-2,2-dimethyl-1,3-dioxolan-4-yl]methyl}oxy)phenyl]-1,2,4-oxadiazol-5-yl}-6-(trifluoromethyl)imidazo[1,2-a]pyridine]	≤ 100	
OC(COc1cc(Cl)c(-c2noc(-c3cn4cc(C(F)(F)F)cc(Br)c4n3)n2)cc1Cl)C(F)(F)F (stereo not shown) [Example 294, 3-[(4-{5-[8-bromo-6-(trifluoromethyl)imidazo[1,2-a]pyridin-2-yl]-1,2,4-oxadiazol-3-yl}-2,5-dichlorophenyl)oxy]-1,1,1-trifluoropropan-2-ol]	≤ 100	
O=C(CO)COc1cc(Cl)c(-c2noc(-c3cn4cc(C(F)(F)F)cc(Cl)c4n3)n2)cc1Cl [Entry 34]	≤ 100	
CS(=O)(=O)CCOc1cc(Cl)c(-c2noc(-c3cn4cc(C(F)(F)F)cc(Cl)c4n3)n2)cc1Cl [Example 333, 8-chloro-2-[3-(2,5-dichloro-4-{[2-(methylsulfonyl)ethyl]oxy}phenyl)-1,2,4-oxadiazol-5-yl]-6-(trifluoromethyl)imidazo[1,2-a]pyridine]		EC50 [2]: 100 to 500 nM
NC(CO)COc1cc(Cl)c(-c2nnc(-c3cn4cc(Cl)ccc4n3)s2)cc1F (stereo not shown) [Example 101, 2-amino-3-({5-chloro-4-[5-(6-chloroimidazo[1,2-a]pyridin-2-yl)-1,3,4-thiadiazol-2-yl]-2-fluorophenyl}oxy)propan-1-ol]	≤ 100	
CC(O)COc1cc(Cl)c(-c2nc(-c3cn4cc(C(F)(F)F)cc(Cl)c4n3)no2)cc1Cl (stereo not shown) [Example 178, 1-[(2,5-dichloro-4-{3-[8-chloro-6-(trifluoromethyl)imidazo[1,2-a]pyridin-2-yl]-1,2,4-oxadiazol-5-yl}phenyl)oxy]propan-2-ol]	≤ 100	
CC(O)COc1cc(Cl)c(-c2nnc(-c3cn4cc(C(F)(F)F)cc(Cl)c4n3)o2)cc1Cl (stereo not shown) [Entry 4]	≤ 100	
CC(N)COc1cc(Cl)c(-c2nnc(-c3cn4cc(C(F)(F)F)cc(Cl)c4n3)s2)cc1F (stereo not shown) [Example 298, 1-[(5-chloro-4-{5-[8-chloro-6-(trifluoromethyl)imidazo[1,2-a]pyridin-2-yl]-1,3,4-thiadiazol-2-yl}-2-fluorophenyl)pxy]propan-2-amine]		EC50 [2]: 100 to 500 nM
NC(CO)COc1cc(Cl)c(-c2nnc(-c3cn4cc(C(F)(F)F)cc(Cl)c4n3)s2)cc1Cl (stereo not shown) [Example 220, 2-amino-3-[(2,5-dichloro-4-{5-[8-chloro-6-(trifluoromethyl)imidazo[1,2-a]pyridin-2-yl]-1,3,4-thiadiazol-2-yl}phenyl)oxy]propan-1-ol]	≤ 100	
C[C@H](CO)Oc1cc(Cl)c(-c2noc(-c3cn4cc(C(F)(F)F)cc(Cl)c4n3)n2)cc1Cl [Example 155, (2R)-2-[(2,5-dichloro-4-{5-[8-chloro-6-(trifluoromethyl)imidazo[1,2-a]pyridin-2-yl]-1,2,4-oxadiazol-3-yl}phenyl)oxy]propan-1-ol]	≤ 100	
NC(CO)COc1cc(Cl)c(-c2nnc(-c3cn4cc(C(F)(F)F)ccc4n3)s2)cc1Cl (stereo not shown) [Example 100, 2-amino-3-[(2,5;dichloro-4-{5-[6-(trifluomethyl)imidazo[1,2-a]pyridin-2-yl] 1,3,4-thiadiazol-2-yl}phenyl)oxy]propan-1-ol]	≤ 100	
CC(C)(CO)Oc1cc(Cl)c(-c2noc(-c3cn4cc(C(F)(F)F)cc(Cl)c4n3)n2)cc1Cl [Entry 26]		EC50 (Tango β-arrestin Recruitment Assay, relative EC50 was measured (footnote 1), read-out: Assay 2b Relative EC50): 100 to 500 nM
NC(CO)COc1cc(Cl)c(-c2nnc(-c3cn4cc(C(F)(F)F)cc(Cl)c4n3)o2)cc1Cl (stereo not shown) [Example 202, 2-amino-3-[(2,5-dichloro-4-{5-[8-chloro-6-(trifluoromethyl)imidazo[1,2-a]pyridin-2-yl]-1,3,4-oxadiazol-2-yl}phenyl)oxy]propan-1-ol]		EC50 (Tango β-arrestin, footnote 1: Relative EC50 was measured, read-out: Assay 2b Relative EC50): 100 to 500 nM
CC(O)COc1cc(Cl)c(-c2nnc(-c3cn4cc(C(F)(F)F)cc(Cl)c4n3)s2)cc1Cl (stereo not shown) [Entry 13]	≤ 100	
C[C@@H](COc1cc(Cl)c(-c2noc(-c3cn4cc(C(F)(F)F)cc(Cl)c4n3)n2)cc1Cl)OP(=O)(O)O [Entry 14]	≤ 100	
N[C@@H](CO)COc1cc(Cl)c(-c2nnc(-c3cn4cc(C(F)(F)F)cc(Cl)c4n3)s2)cc1Cl [Example 201, (2S)-2-amino-3-[(2,5-dichloro-4-{5-[8-chloro-6-(trifluoromethyl)imidazo[1,2-a]pyridin-2-yl]-1,3,4-thiadiazol-2-yl}phenyl)oxy]propan-1-ol]	≤ 100	
NC(CO)COc1cc(Cl)c(-c2nnc(-c3cn4cc(C(F)(F)F)cc(Cl)c4n3)o2)cc1F (stereo not shown) [Example 222, 2-amino-3-[(5-chloro-4-{5-[8-chloro-6-(trifluoromethyl)imidazo[1,2-a]pyridin-2-yl]-1,3,4-oxadiazol-2-yl}-2-fluorophenyl)oxy]propan-1-ol]	≤ 100	
OCCNc1cc(Cl)c(-c2noc(-c3cn4cc(C(F)(F)F)cc(Cl)c4n3)n2)cc1Cl [Entry 30]	≤ 100	
NC(COc1cc(Cl)c(-c2noc(-c3cn4cc(C(F)(F)F)cc(Cl)c4n3)n2)cc1Cl)COP(=O)(O)O (stereo not shown) [Entry 15]	≤ 100	
